The text below walks through data of patent publication US6608086B2, “Dihydropyridines and new uses thereof” (Synaptic Pharmaceutical Corporation, priority 1993, dated 2003).

In general, melting point refers to the temperature, or range, at which the solid turns liquid.

Data set [1] addresses T1, α2C receptor (Homo sapiens, UniProt P18825).
T1 construct: host or cells: LM(tk-) cells, line L-α2C
T1 sequence (P18825 1-462): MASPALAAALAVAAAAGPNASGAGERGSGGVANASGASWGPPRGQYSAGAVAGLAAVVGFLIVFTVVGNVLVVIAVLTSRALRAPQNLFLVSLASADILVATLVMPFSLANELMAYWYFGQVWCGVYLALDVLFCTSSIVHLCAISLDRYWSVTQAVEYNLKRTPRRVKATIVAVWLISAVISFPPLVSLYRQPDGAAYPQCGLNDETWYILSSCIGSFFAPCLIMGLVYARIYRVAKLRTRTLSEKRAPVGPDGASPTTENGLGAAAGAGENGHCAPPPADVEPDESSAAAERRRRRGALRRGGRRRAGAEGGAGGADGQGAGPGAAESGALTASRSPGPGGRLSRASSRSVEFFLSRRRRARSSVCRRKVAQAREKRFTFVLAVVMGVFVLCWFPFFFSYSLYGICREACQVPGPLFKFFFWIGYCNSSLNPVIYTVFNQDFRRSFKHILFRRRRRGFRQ
Description: Competition binding, [3H]rauwolscine, human α2C receptor. Summed up: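 Cell lysates from stably transfected LM(tk−) lines are resuspended in 25 mM glycylglycine (pH 7.6 at room temperature), incubated to equilibrium with 0.5 nM [3H]rauwolscine plus competitor, then filtered through GF/B filters; 10 μM phentolamine defines nonspecific binding.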

Setting [2] is: [3H]rauwolscine, human receptor, LM(tk-) cell lysates, mean, read-out: PKi alpha-2 2c (converted).
The mark [3] stands for this setting: [3H]rauwolscine, human α2C receptor, LM(tk-) cells, read-out: PKi alpha-2 2c (converted).
Where [4] appears, read: [3H]rauwolscine, LM(tk-) cell line L-α2C, SEM and n in lines below, read-out: pKi alpha-2 2c (converted).
[5] abbreviates: [3H]rauwolscine, LM(tk-) cell line L-α2C, SEM and n in lines below.
[6] abbreviates: [3H]rauwolscine, human α2C receptor, LM(tk−) cells.

Counter-ions that a name gives are not always drawn. Like-named read-outs stand apart in the source and are kept apart here.

For the compound `CCC1=C(C(N)=O)C(c2ccc([N+](=O)[O-])cc2)C(C(=O)NCCCN2CCC(C(=O)OC)(c3ccccc3)CC2)=C(CC)N1` (stereo not drawn) [Example 200], the melting point was in the range of 112 to 114 °C. This compound gave a Ki in data set [1] (PKi alpha-2 2c) of 1620 nM.

Turning to `CC(=O)C1=C(C)NC(CCCCN)=C(C(=O)NCCCN2CCC(c3ccccc3)(c3ccccc3)CC2)C1c1ccc([N+](=O)[O-])cc1` (stereo not drawn) [Example 176, 5-Acetyl-2-(4-aminobutyl)-1,4-dihydro-6-methyl-4-(4-nitrophenyl)-3-{N-[3-(4,4-diphenylpiperidin-1-yl)propyl]}carboxamidopyridine], the melting point lay in the range of 76 to 79 °C. For the same compound, the Ki in data set [1] (setting [2]) was 724 nM.

Compound `COC(=O)C1(c2ccccc2)CCN(CCCNC(=O)C2=C(CCCCN)NC(C)=C(C(N)=O)C2c2ccc([N+](=O)[O-])cc2)CC1` (stereo not drawn) [Example 177, 2-(4-Aminobutyl)-5-carboxamido-1,4-dihydro-3-{N-[3-(4-methoxycarbonyl-4-phenylpiperidin-1-yl)propyl]}carboxamido-6-methyl-4-(4-nitrophenyl)pyridine] had a melting point of 81 to 84 °C. Moreover, the Ki in data set [1] (PKi alpha-2 2c) was 832 nM.

In the case of `CCNC(=O)C1=C(CC)NC(CC)=C(C(=O)NCCCN2CCC(C(=O)OCC)(c3ccccc3)CC2)C1c1ccc([N+](=O)[O-])cc1` (stereo not drawn) [Example 182, 2,6-Diethyl-1,4-dihydro-3-{N-[3-(4-ethoxycarbonyl-4-phenylpiperidin-1-yl)propyl]}carboxamido-5-(N-ethyl)carboxamido-4(4-nitrophenyl)pyridine], the melting point was 103 to 104 °C. The same compound had a Ki in data set [1] (PKi alpha-2 2c) of 1150 nM.

On to `CCC1=C(C(=O)NN2CCOCC2)C(c2ccc([N+](=O)[O-])cc2)C(C(=O)NCCCN2CCC(c3ccccc3)(c3ccccc3)CC2)=C(COC)N1` (stereo not drawn) [Example 248, 6-Ethyl-1,4-dihydro-2-((methyl)oxy)methyl-5-N-(morpholin-4yl)carboxamido-4-(4-nitro)phenyl-3-(N-(3-(4,4-diphenylpiperidin-1-yl)propyl))carboxamidopyridine], for which the melting point was 112 °C (dec.). In addition, the Ki in data set [1] (setting [3]) was 525 nM.

`CCOC(=O)C1(c2ccccc2)CCN(CCCNC(=O)C2=C(COCCN)NC(CC)=C(C(N)=O)C2c2ccc([N+](=O)[O-])cc2)CC1` (stereo not drawn) [Example 193, 2-[(2-Aminoethoxy)methyl]-5-carboxamido-3-{N-[3-(4-ethoxycarbonyl-4-phenylpiperidin-1-yl)propyl]}carboxamido-1,4-dihydro-6-ethyl-4-(4-nitrophenyl)pyridine] displayed a melting point of 87 to 89 °C. Also, in data set [1] (setting [2]), the Ki was 631 nM.

`CCOC(=O)C1(c2ccccc2)CCN(CCCNC(=O)C2=C(COCCN)NC(CC)=C(C(=O)O)C2c2ccc([N+](=O)[O-])cc2)CC1` (stereo not drawn) [Example 196, 2-[(2-Aminoethoxy)methyl]-3-{N-[3-(4-ethoxycarbonyl-4-phenylpiperidin-1-yl)propyl]}carboxamido-1,4-dihydro-6-ethyl-4-(4-nitrophenyl)pyridine-5-carboxylic Acid] gave a melting point of 103 to 105 °C. For the same compound, the Ki in data set [1] (setting [2]) is 3090 nM.

The compound `CCNC(=O)C1=C(CC)NC(COCCN)=C(C(=O)NCCCN2CCC(C(=O)OCC)(c3ccccc3)CC2)C1c1ccc([N+](=O)[O-])cc1` (stereo not drawn) [Example 192, 2-[(2-Aminoethoxy)methyl]-3-{N-[3-(4-ethoxycarbonyl-4-phenyl-piperidin-1-yl)propyl]}carboxamido-1,4-dihydro-6-ethyl-5-(N-ethyl)carboxamido-4-(4-nitrophenyl)pyridine] yielded a melting point of 112 to 114 °C. Moreover, the Ki in data set [1] (setting [2]) is 1480 nM.

For the compound `COC(=O)C1(c2ccccc2)CCN(CCCNC(=O)C2=C(COCCN)NC(C)=C(C(C)=O)C2c2ccc(F)cc2)CC1` (stereo not drawn) [Example 245, 5-Acetyl-2-((2-aminoethyl)oxy)methyl-4-(4-fluoro)phenyl-1,4-dihydro-3-(N-3-(4-methoxycarbonyl-4-phenylpiperidin-1-yl)propyl)carboxamido-6-methylpyridine], the Ki in data set [1] (setting [3]) was 316 nM.

Regarding `COc1cc2c(cc1OC)CN(CCCNC(=O)C1=C(C)NC(C)=C(C(N)=O)C1c1ccc([N+](=O)[O-])cc1)CC2` (stereo not drawn) [Example 58, 5-Carboxamido-1,4-dihydro-3-{N-[3-(1,2,3,4-tetrahydro-6,7-dimethoxyisoquinolin-2-yl)propyl]}carboxamido-2,6-dimethyl-4-(4-nitrophenyl)pyridine hydrochloride], the Ki in data set [1] (setting [4]) is 50.1 nM.

As for `CC(=O)C1=C(C)NC(C)=C(C(=O)NCCCN2CCC(c3ccccc3)(c3ccccc3)CC2)C1c1ccc([N+](=O)[O-])cc1` (stereo not drawn) [Example 47, 5-Acetyl-1,4-dihydro-2,6-dimethyl-4-(4-nitrophenyl)-3-{N-[3-(4,4-diphenylpiperidin-1-yl)propyl]}carboxamidopyridine], the “pKi alpha-2 2c” value in data set [1] (setting [5]) amounted to 6.43.

Regarding `CCC1=C(C(=O)NCCCN2CCC(c3ccccc3)CC2)C(c2ccc([N+](=O)[O-])cc2)C(C(=O)OC)=C(C)N1` (stereo not drawn) [Example 74, 2-Ethyl-1,4-dihydro-5-methoxycarbonyl-6-methyl-4-(4-nitro)phenyl-3-(N-(3-(4-phenylpiperidin-1-yl)propyl)) carboxamidopyridine hydrochloride hydrate], the Ki in data set [1] (setting [4]) is 23.4 nM.

Turning to `CNC(=O)C1=C(C)NC(C)=C(C(=O)NCCCN2CCC(c3ccccc3)(c3ccccc3)CC2)C1c1ccc([N+](=O)[O-])cc1` (racemic) [(±)-119, 1,4-Dihydro-2,6-dimethyl-5-(N-Methyl) carboxamido-4-(4-nitrophenyl)-3-{N-[3-(4,4-diphenylpiperidin-1-yl)propyl]}carboxamidopyridine], in data set [1], the “pKi alpha-2 2c” value was found to be 6.49.

For the compound `COc1ccccc1N1CCN(CCCNC(=O)C2=C(C)NC(C)=C(C(N)=O)C2c2ccc([N+](=O)[O-])cc2)CC1` (stereo not drawn) [Example 124], in data set [1] ([3H]rauwolscine, human α2C receptor, LM(tk−) cells, read-out: pKi alpha-2 2c (converted)), the Ki is 44.7 nM.

Regarding `CCC1=C(C(N)=O)C(c2ccc([N+](=O)[O-])cc2)C(C(=O)NCCCN2CCC(c3ccccc3)(c3ccccc3)CC2)=C(CC)N1` (stereo not drawn) [Example 120, 5-Carboxamido-2,6-diethyl-1,4-dihydro-4-(4-nitrophenyl)-3-{N-[3-(4,4-diphenylpiperidin-1-yl)propyl]} carboxamidopyridine], in data set [1] (setting [6]), the “pKi alpha-2 2c” value is 6.72.

`COC(=O)C1=C(C)NC(C)=C(C(=O)NCCCCN2CCC(c3ccccc3)(c3ccccc3)CC2)C1c1ccc([N+](=O)[O-])cc1.Cl.O` (stereo not drawn) [Example 53, 1,4-Dihydro-3-methoxycarbonyl-2,6-dimethyl-4-(4-nitrophenyl)-5-{N-[4-(4,4-diphenylpiperidin-1-yl)butyl]}carboxamidopyridine hydrochloride hydrate]: the “pKi alpha-2 2c” value in data set [1] (setting [5]) was 6.67.

For the compound `CCC1=C(C(N)=O)C(c2ccc([N+](=O)[O-])cc2)C(C(=O)NC2CCN(CCc3c[nH]c4ccccc34)CC2)=CN1CC` (stereo not drawn) [Example 123, 5-Carboxamido-1,6-diethyl-1,4-dihydro-3-(N-{1-[2-(3-indolyl)ethyl]piperidin-4-yl}) carboxamide-4-(4-nitrophenyl)pyridine], the “pKi alpha-2 2c” value in data set [1] (setting [6]) was determined as 6.42.

Consider “5-Acetyl-1,4-dihydro-2,6-dimethyl-4-(4-nitrophenyl)-3-[3-(4,4-diphenylpiperidin-1-yl)propoxy]carbonylpyridine hydrochloride hemihydrate [Example 49]”, for which the “pKi alpha-2 2c” value in data set [1] stood at 6.86.

Regarding `CCOC(=O)C1(c2ccccc2)CCN(CCCNC(=O)C2=C(COCC(F)(F)F)NC(C)=C(C(N)=O)C2c2ccc([N+](=O)[O-])cc2)CC1` (stereo not drawn) [Example 243, 5-Carboxamido-3-(N-(3-(4-ethoxycarbonyl-4-phenylpiperidin-1yl)propyl))carboxamido-2-((2,2,2-trifluoroethyl)oxy)methyl-1,4dihydro-6-methyl-4-(4-nitro)phenylpyridine], the Ki in data set [1] (setting [3]) is 1070 nM.

Consider `CCC1=C(C(N)=O)C(c2ccc([N+](=O)[O-])cc2)C(C(=O)NCCCN2CCC(O)(c3ccccc3)CC2)=CN1CC.Cl.O` (stereo not drawn) [Example 101, 5-Carboxamido-1,6-diethyl-1,4-dihydro-3-{N-[3-(4-hydroxy-4-phenylpiperidin-1-yl)propyl]}carboxamido-4-(4-nitrophenyl)pyridine hydrochloride hydrate], for which the “pKi alpha-2 2c” value in data set [1] (setting [6]) worked out at 6.04.

As for `CC(=O)C1=C(C)NC(COCCN)=C(C(=O)NCCCN2CCC(c3ccccc3)(c3ccccc3)CC2)C1c1ccc([N+](=O)[O-])cc1` (stereo not drawn) [Example 237, 5-Acetyl-2-((2-aminoethyl)oxy)methyl-1,4-dihydro-6-methyl-4-(4-nitro)phenyl 3-(N-(3-(4,4-diphenylpiperidin-1-yl)propyl)) carboxamidopyridine], the Ki in data set [1] (setting [2]) is 324 nM.

`CCC1=C(C(=O)NCCCN2CCc3cc(OC)c(OC)cc3C2)C(c2ccc([N+](=O)[O-])cc2)C(C(N)=O)=C(C)N1.Cl.O` (stereo not drawn) [Example 76, 5-Carboxamido-2-ethyl-1,4-dihydro-3-(N-(3-(1,2,3,4-tetrahydro-6,7-dimethoxyisoquinolin-2-yl)propyl)) carboxamido-6-methyl-4-(4-nitro)phenylpyridine hydrochloride hydrate]: the “pKi alpha-2 2c” value in data set [1] (setting [5]) was 7.70.
